Source: ChEMBL document CHEMBL1201862, “PubChem BioAssay data set” (2004)
Calls of active or inactive are those of the source.

Assays:
Cysteine protease ATG4B = Cysteine protease ATG4B (Homo sapiens, UniProt Q9Y4P1); format: functional;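 further: Fluorescence-based dose-response confirmation assay measuring inhibition of ATG4B activity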
Phospholipase A2 = Phospholipase A2 (Homo sapiens, UniProt P04054); format: functional;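 further: confirmatory dose-response counterscreen on phospholipase A2, testing hits that came from an ultra-high-throughput screen for ATG4B inhibitors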
[1] = viability of HCT116 lacking mutant beta-catenin – cell-based, human colon tumor, dose response (AID 1045); format: functional;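 further: HCT116 colon tumor cells with beta catenin knocked out; cells exposed to compound for 60 hours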
Cytochrome P450 2C9 = Cytochrome P450 2C9 (Homo sapiens, UniProt P11712)
[2] = reduction of Shn3 3'UTR-driven luciferase in osteoblasts – cell-based, Clone20 osteoblasts, firefly luciferase, cherry-picked, dose response (AID 624132); format: functional;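 further: firefly luciferase luminescence from reporter carrying the Shn3 3'UTR in osteoblasts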
[3] = loss of viability in HepG2 cells – cell-based, CellTiter-Glo, cherry-picked, cytotoxicity control for Shn3 inhibitor project, dose response (AID 624134); format: functional
Cytochrome P450 2C19 = Cytochrome P450 2C19 (Homo sapiens, UniProt P33261); assay: Cytochrome panel assay with activity outcomes. Panel member name: p450-cyp2c19 Compounds with AC50 equal or less than 10 uM are considered active; format: functional; details: read-out: AC50
[4] = target: T1, Ubiquitin-conjugating enzyme E2 N (Homo sapiens, UniProt P61088); format: functional;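 further: Dose-response confirmation in a TR-FRET assay detecting UBC13-driven polyubiquitin chain formation, inhibition measured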
T1 sequence (P61088 whole entry): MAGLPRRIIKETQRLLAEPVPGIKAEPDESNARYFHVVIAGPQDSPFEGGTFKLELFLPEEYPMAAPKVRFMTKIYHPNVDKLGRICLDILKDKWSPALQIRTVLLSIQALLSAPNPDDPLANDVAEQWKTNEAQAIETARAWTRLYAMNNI

[5] = target: Beta-2 adrenergic receptor (Homo sapiens, UniProt P07550); assay: ADRB2 activation measured by internalization – cell-based, FAP fluorogen, flow cytometry, cherry pick 1, dose response (AID 588763); format: functional
[6] = non-specific 3'UTR reporter inhibition in Clone20-Shn3RL – cell-based, Renilla luciferase, cherry-picked, counter-screen for Shn3 inhibitor project, dose response (AID 624133); format: functional
INS1 = assay: INS-1E survival protection against cytokine death – cell-based, luminescence, retest, dose response (AID 449756); format: functional; details: Rattus norvegicus;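 further: cell death triggered by IL-1 beta plus TNF-alpha plus IFN-gamma mixture; protective hits raise ATP signal compared with cytokine alone wells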
[7] = Luminescence Cell-Based Dose Response HTS to Identify Inhibitors of 5'UTR Stem-Loop Driven Prion Protein mRNA Translation in H4 Neuroglioblastoma Cells. [Related pubchem assays: 1827 (Project Summary), 1813 (Primary HTS)]; format: functional
[8] = luciferase reporter signal suppression in cells – H4 neuroglioma cells, luminescence, dose response (AID 1990); format: functional, cell-based
[9] = viability of PTEN-deleted HCT116 cells – cell-based, HCT116 PTEN knockout, dose response (AID 1047); format: functional;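 further: HCT116 colon tumor cells with PTEN knocked out; cells exposed to compound for 60 hours before readout; potency for loss of cell viability measured by luminescence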
[10] = alpha-synuclein stem-loop luciferase translation blockers – H4 neuroglioma cells, luminescence, confirmation (AID 1988); format: functional, cell-based
Hexokinase HKDC1 = target: T2, Hexokinase HKDC1 (Homo sapiens, UniProt Q2TB90); assay: SAR analysis of small molecule inhibitors of hexokinase domain containing I (HKDC1). [Related pubchem assays (depositor defined):AID493160, AID493190]; format: functional
T2 sequence (Q2TB90 whole entry): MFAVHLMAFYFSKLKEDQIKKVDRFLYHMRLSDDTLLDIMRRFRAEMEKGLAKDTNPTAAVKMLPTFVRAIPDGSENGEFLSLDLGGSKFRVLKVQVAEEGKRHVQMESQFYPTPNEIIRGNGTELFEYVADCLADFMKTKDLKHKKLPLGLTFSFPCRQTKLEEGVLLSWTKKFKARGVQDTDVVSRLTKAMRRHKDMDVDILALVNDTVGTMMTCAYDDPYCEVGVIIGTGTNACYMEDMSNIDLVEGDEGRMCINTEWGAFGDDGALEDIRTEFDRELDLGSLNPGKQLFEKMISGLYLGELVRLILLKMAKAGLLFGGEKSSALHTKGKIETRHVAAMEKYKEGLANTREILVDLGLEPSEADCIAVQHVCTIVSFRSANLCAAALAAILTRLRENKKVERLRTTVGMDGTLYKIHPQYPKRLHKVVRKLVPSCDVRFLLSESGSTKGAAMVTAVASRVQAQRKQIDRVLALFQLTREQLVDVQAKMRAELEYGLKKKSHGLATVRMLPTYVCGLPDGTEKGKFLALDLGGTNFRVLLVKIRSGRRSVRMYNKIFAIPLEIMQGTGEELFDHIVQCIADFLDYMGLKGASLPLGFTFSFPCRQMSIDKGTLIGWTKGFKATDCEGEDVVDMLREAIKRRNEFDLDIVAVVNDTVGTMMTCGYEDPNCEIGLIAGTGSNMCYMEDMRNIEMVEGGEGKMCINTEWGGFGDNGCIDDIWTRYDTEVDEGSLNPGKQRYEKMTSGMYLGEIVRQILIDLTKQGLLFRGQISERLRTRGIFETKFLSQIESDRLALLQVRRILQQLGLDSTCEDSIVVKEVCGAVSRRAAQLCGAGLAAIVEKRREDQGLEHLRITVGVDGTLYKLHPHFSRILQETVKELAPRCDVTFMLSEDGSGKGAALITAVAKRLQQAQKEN

Hexokinase-1 = Hexokinase-1 (Homo sapiens, UniProt P19367); assay: SAR analysis of small molecule inhibitors of hexokinase domain containing I (HKDC1) in the hexokinase 1 selectivity assay. [Related pubchem assays (depositor defined):AID493160, AID493190]; format: functional
[11] = tested on: Streptococcus sp. 'group A'; assay: Streptococcus pyogenes SK(-)GAS viability under kanamycin – luminescence, BacTiterGlo, confirmation, counter-screen for streptokinase expression inhibitor project, dose response (AID 1900); format: functional, organism-based
HEK293 [12] = assay: SAR Analysis of small molecule inhibitors of T-cell specific antigen receptor-induced NF-kB activation in a HEK-293T cell line using a luminescence assay - Set 2. [Related pubchem assays (depositor defined):AID435003, AID435012, AID489026]; format: functional, cell-based; details: Homo sapiens
Streptokinase A = target: T3, Streptokinase A (Streptococcus pyogenes serotype M1, UniProt P10520); assay: viability-normalized secreted streptokinase activity reduction – plasminogen activation absorbance, OD405, dose response (AID 1914); format: functional, Streptococcus pyogenes M1 GAS;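 further: secreted streptokinase activity via plasminogen activation per viability signal from cell pellet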
T3 sequence (P10520 whole entry): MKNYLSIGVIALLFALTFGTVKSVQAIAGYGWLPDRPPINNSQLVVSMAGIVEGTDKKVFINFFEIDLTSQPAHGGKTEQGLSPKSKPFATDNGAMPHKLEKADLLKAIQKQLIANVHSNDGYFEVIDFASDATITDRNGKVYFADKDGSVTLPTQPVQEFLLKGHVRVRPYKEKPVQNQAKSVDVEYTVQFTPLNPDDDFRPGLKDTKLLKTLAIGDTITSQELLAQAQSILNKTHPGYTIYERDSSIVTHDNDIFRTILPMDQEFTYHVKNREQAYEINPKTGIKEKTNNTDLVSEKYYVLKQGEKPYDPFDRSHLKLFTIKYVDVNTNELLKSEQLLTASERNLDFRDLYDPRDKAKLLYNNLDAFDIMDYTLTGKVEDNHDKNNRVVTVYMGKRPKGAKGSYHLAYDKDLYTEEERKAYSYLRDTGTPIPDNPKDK

HEK293 [13] = assay: HEK293T cell viability loss, resazurin readout – resazurin fluorescence, cytotoxicity control for NF-kB activator project, SAR follow-up (AID 493251); format: functional, cell-based; details: Homo sapiens
Jurkat = assay: SAR Analysis of small molecule inhibitors of T-cell specific antigen receptor-induced NF-kB activation in a Jurkat cell line using a luminescence assay - Set 2. [Related pubchem assays (depositor defined):AID435003, AID435012, AID465]; format: functional, cell-based; details: Homo sapiens
[14] = viability of uninfected HEp-2 cells – cell-based, HTS, cytotoxicity control for RSV inhibitor project, dose response (AID 2410); format: functional; details: human respiratory syncytial virus
[15] = A Cell Based Secondary Assay To Explore Cytotoxicity of Compounds that Sensitize Mycobacterium Tuberculosis to Beta-Lactam Antibiotics.; format: functional
Streptococcus = assay: GAS UMAA2166 growth inhibition – luminescence, BacTiterGlo, counter-screen for streptokinase expression inhibitor project, dose response (AID 1915); format: functional, organism-based;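 further: potency for reduction of bacterial viability or growth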

Cysteine protease ATG4B, sequence (Q9Y4P1 whole entry): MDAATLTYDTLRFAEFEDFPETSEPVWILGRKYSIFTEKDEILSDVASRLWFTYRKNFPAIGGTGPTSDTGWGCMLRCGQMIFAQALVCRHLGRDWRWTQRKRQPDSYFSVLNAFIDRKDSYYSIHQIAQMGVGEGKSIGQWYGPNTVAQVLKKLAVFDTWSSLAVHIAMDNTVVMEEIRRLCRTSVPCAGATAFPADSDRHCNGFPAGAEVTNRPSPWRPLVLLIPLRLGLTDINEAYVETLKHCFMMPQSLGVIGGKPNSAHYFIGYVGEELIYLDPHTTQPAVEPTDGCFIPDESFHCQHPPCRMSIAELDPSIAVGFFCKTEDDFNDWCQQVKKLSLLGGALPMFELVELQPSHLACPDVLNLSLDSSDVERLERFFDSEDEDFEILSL
Phospholipase A2, sequence (P04054 whole entry): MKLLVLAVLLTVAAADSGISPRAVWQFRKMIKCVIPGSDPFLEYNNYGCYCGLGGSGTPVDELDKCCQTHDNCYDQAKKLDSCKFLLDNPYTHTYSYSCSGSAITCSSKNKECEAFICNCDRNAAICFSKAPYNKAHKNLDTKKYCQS
Cytochrome P450 2C19, sequence (P33261 whole entry): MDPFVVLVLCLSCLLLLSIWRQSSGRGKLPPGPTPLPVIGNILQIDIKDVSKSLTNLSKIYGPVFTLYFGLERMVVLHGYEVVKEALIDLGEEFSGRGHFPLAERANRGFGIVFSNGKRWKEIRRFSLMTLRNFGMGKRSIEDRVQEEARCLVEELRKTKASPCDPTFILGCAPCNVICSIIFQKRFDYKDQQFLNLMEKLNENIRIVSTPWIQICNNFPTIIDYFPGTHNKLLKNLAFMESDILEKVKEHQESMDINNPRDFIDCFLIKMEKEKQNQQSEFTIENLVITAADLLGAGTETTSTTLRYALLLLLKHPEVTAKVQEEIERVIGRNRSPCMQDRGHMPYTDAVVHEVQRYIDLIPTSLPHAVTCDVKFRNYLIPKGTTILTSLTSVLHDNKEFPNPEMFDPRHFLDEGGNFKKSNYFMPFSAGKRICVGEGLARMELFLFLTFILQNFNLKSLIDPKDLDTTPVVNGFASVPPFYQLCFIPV
Beta-2 adrenergic receptor, sequence (P07550 whole entry): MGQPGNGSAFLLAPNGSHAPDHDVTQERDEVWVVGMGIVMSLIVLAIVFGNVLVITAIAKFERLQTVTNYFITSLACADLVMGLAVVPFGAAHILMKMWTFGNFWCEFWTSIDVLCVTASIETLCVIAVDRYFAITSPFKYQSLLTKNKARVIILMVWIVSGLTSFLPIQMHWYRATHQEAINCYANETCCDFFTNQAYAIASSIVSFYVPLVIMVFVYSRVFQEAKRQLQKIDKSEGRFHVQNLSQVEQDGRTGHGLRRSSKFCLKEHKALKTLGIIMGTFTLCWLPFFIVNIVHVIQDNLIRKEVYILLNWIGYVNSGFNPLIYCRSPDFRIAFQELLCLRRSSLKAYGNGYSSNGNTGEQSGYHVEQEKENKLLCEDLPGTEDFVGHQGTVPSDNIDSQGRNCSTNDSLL
Hexokinase-1, sequence (P19367 whole entry, the tested form may be a part): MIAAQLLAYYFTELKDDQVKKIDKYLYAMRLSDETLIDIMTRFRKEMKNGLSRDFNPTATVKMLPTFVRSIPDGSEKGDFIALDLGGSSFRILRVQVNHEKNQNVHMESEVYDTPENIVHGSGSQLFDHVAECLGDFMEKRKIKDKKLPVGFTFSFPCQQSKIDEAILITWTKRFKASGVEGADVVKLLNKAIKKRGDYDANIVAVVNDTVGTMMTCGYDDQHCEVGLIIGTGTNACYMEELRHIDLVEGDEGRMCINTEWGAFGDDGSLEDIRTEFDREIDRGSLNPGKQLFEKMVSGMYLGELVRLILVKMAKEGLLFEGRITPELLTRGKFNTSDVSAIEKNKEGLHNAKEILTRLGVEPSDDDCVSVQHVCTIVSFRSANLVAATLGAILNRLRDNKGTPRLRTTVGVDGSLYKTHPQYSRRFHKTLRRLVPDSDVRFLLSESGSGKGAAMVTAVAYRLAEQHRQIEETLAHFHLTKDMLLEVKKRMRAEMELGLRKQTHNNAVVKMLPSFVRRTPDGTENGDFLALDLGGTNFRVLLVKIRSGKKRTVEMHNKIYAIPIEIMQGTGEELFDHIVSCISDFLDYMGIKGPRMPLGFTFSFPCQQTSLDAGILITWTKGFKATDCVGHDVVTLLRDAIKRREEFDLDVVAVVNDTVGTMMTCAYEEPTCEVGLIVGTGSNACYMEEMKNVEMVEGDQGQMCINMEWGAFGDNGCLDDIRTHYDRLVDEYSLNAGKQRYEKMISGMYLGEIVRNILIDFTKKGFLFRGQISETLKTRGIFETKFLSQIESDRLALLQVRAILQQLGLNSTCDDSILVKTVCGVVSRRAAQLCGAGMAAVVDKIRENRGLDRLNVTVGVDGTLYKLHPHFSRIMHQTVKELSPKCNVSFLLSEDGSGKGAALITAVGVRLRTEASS
Cytochrome P450 2C9, sequence (P11712 whole entry): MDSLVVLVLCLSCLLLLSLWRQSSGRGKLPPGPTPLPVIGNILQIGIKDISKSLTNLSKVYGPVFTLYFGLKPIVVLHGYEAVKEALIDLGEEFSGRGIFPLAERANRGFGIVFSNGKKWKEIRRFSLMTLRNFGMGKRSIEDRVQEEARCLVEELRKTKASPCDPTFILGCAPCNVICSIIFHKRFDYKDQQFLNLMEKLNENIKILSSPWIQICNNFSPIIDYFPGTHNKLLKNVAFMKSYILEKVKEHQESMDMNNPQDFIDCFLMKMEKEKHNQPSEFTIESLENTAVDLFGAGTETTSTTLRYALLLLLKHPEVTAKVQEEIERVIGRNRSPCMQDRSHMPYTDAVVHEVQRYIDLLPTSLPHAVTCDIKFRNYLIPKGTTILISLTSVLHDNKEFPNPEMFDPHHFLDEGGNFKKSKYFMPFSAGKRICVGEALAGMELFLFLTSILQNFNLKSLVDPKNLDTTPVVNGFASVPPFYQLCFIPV

O=C(CC1SC(N/N=C/c2cccs2)=NC1=O)Nc1ccc(Cl)c(Cl)c1 (stereo unspecified)
IC50 (Cysteine protease ATG4B): 13.8 µM (active) | IC50 (Phospholipase A2): 4.25 µM (active)

CCOc1cc(CNCCc2ccc(S(N)(=O)=O)cc2)ccc1OCc1ccc(Cl)cc1
EC50 [1]: 3.56 µM (active) | AC50 (Cytochrome P450 2C9): 11.2 µM (inconclusive) | AC50 [2]: 3.87 µM (active) | AC50 [3]: 9.14 µM (active) | AC50 (Cytochrome P450 2C19): 17.8 µM (inconclusive) | IC50 [4]: > 20 µM (inactive) | EC50 [5]: 16.1 µM (inactive) | AC50 [6]: 4.75 µM (active) | AC50 (INS1): 4.78 µM (active) | EC50 [7]: > 120 µM (not active) | EC50 [8]: 9.07 µM (active) | EC50 [9]: 8.2 µM (active) | EC50 [10]: 59.1 µM (active)

Cc1ccc(S(=O)(=O)Nc2cc(SCC(=O)O)c(O)c3ccccc23)cc1[N+](=O)[O-]
IC50 (Hexokinase HKDC1): 11.4 µM (active) | IC50 (Hexokinase-1): 59.8 µM (inactive)

Cc1cc(NC(=O)c2ccc3c(c2)OCCO3)ccc1NC(=O)c1cc2ccccc2o1
EC50 [11]: 14 µM (active) | IC50 (HEK293 [12]): 8.84 µM (active) | EC50 (Streptokinase A): > 150 µM (not active) | IC50 (HEK293 [13]): 8.04 µM (active) | IC50 (Jurkat): 38.6 µM (inactive) | CC50 [14]: 18.2 µM (active) | CC50 [15]: > 40 µM (active) | IC50 (cells): 7.55 µM (active) | EC50 (Streptococcus): 14.9 µM (active)
